# Values of other authors, collected in patent US7341836B2, “Modified cyclic nucleotide gated ion channels” (The Regents of the University of Colorado, priority 2001, dated 2008).
# Legend:
# PDE V = PDE V (UniProt O76074); details: cited from earlier work
# PDE IX = molecular target: T1, PDE IX (UniProt O70628); details: read-out: IC50, PDE IX; cited from earlier work
# T1 sequence (O70628 1-534): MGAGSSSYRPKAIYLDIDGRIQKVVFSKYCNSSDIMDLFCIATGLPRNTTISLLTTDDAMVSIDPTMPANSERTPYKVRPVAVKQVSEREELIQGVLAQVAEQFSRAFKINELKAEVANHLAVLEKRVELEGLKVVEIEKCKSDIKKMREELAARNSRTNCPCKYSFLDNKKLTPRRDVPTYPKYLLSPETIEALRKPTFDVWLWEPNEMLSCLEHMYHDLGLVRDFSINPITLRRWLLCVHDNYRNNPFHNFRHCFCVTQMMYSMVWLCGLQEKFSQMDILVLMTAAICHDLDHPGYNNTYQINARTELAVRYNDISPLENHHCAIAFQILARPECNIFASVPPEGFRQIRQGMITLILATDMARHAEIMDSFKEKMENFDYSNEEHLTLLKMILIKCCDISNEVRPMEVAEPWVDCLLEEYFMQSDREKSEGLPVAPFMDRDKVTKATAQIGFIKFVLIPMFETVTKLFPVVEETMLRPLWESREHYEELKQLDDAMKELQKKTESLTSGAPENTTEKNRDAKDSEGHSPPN
# PDE VIII = molecular target: T2, PDE VIII (Mus musculus, UniProt O88502); details: cited from earlier work
# T2 construct: host or cells: heterologously expressed
# T2 sequence (O88502 1-823): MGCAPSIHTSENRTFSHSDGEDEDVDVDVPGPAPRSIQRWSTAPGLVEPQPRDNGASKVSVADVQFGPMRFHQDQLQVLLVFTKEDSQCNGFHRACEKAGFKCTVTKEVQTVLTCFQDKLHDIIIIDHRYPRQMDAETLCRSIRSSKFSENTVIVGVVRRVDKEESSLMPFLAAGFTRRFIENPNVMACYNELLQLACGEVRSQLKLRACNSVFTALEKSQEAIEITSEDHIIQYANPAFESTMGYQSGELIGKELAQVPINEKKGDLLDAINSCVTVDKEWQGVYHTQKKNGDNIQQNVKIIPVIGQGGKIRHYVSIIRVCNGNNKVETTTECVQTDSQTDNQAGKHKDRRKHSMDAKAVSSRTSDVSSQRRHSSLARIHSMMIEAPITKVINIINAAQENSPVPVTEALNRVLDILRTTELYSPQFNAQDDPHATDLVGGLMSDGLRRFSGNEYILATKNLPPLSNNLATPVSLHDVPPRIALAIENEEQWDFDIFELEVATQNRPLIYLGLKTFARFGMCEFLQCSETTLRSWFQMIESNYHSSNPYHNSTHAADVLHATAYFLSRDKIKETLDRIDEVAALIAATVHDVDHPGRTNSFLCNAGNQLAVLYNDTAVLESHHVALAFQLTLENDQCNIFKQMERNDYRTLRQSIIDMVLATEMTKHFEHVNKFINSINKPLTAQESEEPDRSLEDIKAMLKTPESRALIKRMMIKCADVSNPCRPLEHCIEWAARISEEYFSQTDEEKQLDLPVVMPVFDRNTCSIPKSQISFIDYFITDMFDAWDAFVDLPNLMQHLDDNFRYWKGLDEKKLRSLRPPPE
# PDE II = molecular target: T3, PDE II (Homo sapiens, UniProt O00408); details: read-out: IC50, PDE II; cited from earlier work
# T3 construct: host or cells: heterologously expressed human PDE; human heart
# PDE I = details: cited from earlier work
# T3 sequence (O00408 whole entry): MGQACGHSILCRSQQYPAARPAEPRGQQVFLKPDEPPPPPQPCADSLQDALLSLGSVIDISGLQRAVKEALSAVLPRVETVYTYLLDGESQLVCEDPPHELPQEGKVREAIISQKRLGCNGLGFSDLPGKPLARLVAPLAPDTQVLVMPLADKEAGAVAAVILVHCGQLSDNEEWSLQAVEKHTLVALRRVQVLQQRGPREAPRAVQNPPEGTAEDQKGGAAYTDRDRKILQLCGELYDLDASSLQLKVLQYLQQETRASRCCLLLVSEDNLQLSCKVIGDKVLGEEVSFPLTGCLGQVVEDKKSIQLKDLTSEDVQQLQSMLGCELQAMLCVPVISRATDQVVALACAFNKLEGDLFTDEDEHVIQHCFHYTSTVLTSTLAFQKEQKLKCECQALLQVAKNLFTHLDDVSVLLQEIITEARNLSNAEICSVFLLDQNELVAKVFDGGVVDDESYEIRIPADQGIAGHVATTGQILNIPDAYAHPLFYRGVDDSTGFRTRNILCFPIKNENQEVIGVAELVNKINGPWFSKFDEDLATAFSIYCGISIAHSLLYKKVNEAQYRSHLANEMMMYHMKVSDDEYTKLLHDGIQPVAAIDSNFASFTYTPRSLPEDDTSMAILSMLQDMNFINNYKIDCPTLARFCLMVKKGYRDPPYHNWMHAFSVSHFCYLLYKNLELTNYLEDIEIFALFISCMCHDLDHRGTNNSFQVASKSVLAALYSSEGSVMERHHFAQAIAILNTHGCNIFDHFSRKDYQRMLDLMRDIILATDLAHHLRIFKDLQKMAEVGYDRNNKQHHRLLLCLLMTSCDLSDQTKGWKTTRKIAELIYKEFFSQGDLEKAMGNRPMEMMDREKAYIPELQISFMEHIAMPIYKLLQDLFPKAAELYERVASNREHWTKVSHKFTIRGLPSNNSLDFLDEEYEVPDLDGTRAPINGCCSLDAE
smiles,measurement,setting,value
CCCCCC[C@@H]([C@@H](C)O)n1cnc2c(N)ncnc21 (racemic) [EHNA],IC50,PDE V,> 500 µM
same,IC50,PDE IX,> 100 µM
same,IC50,PDE VIII,> 100 µM
same,IC50,PDE II,0.5 to 1 µM
"CC(C)Cn1c(=O)n(C)c(=O)c2[nH]cnc21 [IBMX, 3-isobutyl-1-methylxanthine]",IC50,PDE V,4 to 7 µM
same,IC50,PDE IX,> 200 µM
same,IC50,PDE VIII,> 200 µM
same,IC50,PDE II,20 to 50 µM
same,IC50,PDE I,2 to 3 µM
COc1ccc(C2CNC(=O)C2)cc1OC1CCCC1 (centres unmarked) [Rolipram],IC50,PDE IX,> 200 µM
same,IC50,PDE VIII,> 200 µM
same,IC50,PDE II,> 100 µM
same,IC50,PDE I,> 150 µM
"CCCCOc1cc(CC2CNC(=O)N2)ccc1OC (centres unmarked) [RO-20-1724, 4-(3-butoxy-4-methoxybenzyl)-2-imidazolidinone]",IC50,PDE V,250 µM
same,IC50,PDE VIII,> 200 µM
same,IC50,PDE II,> 100 µM
same,IC50,PDE I,200 µM
